US4146615A, “Chrysanthellum plant extract” (Laboratoires Sarget, priority 1977, dated 1979)
Like-named read-outs stand apart in the source and are kept apart here. One block for each compound: values may come before it.

Tests used:
[1] = test system: EOPS mouse; settings: Mice
Procedure: Acute toxicity was determined in the EOPS mouse, the standard Wistar rat and the EOPS Wistar rat for several methods of administration. The products were administered orally in suspension in gum julep, and i.p. and i.v. in a physiological solution neutralized with NaOH.
In all cases the doses are expressed in mg per kg of animal weight.

[2] = test system: EOPS Wistar rat; assay: Acute toxicity in the EOPS Wistar rat (Litchfield and Wilcoxon); format: in vivo; settings: EOPS Wistar rats, IP
[3] = test system: male standard Wistar rats; assay: Intoxication by slow IV perfusion in the anesthetized rat
Procedure: The carotid pressure, the heart rate, the respiration and the electrocardiogram were recorded on lead DII. […] The products were administered in solution in physiological serum. The solutions were neutralized with bicarbonate.

[4] = test system: male mice of the Swiss EOPS strain; assay: Analgesic activity, P.B.Q. test (chemical stimulus); format: in vivo, mouse; settings: 10 minutes before P.B.Q., range in parentheses
Procedure: Experiments were performed on male mice of the Swiss EOPS strain and two stress-producing stimuli were used: the P.B.Q. test (chemical stimulus) and the hot plate test (thermal stimulus).
An aqueous alcoholic solution of 0.02% phenyl p-benzoquinone (P.B.Q.) was administered i.p. to the animals; at the end of 5 minutes this induced abdominal contractions and extension of the mice's hind paws.
The doses are expressed in mg/kg of animal weight.

[5] = test system: male mice of the Swiss EOPS strain; assay: Analgesic activity, hot plate test (thermal stimulus); format: in vivo, mouse; settings: 56° C., reaction time ≥150% of reference time
Procedure: Experiments were performed on male mice of the Swiss EOPS strain and two stress-producing stimuli were used: the P.B.Q. test (chemical stimulus) and the hot plate test (thermal stimulus). […] The doses are expressed in mg/kg of animal weight.

[6] = test system: Edema from Carrageenan; assay: Anti-inflammatory activity, edema test with carrageenan; format: in vivo, rat; settings: i.p.
Procedure: This effect was determined in the edema test with carrageenan in male EOPS Wistar rats. A volume of 0.1 ml of a suspension of 0.5% carrageenan in physiologic serum was injected into the muscle bundle of the metatarsal region of the animal's hind paws. The test sample was administered i.p. in neutralized physiologic solution simultaneously with the carrageenan. The edema was measured by plethysmometry 2, 3 and 6 hours after the administration of carrageenan.

[7] = test system: constraint ulcer; assay: Anti-ulcer activity, constraint ulcer test (Bonfils); format: in vivo, rat; settings: 50 mg/kg PO
Procedure: The anti-ulcer activity was determined in female EOPS Wistar rats in the constraint ulcer test by the technique of Bonfils.
After 24 hours without food the rats, lightly anesthetized with ether, were immobilized in pliable metal-lattice corselets. The paws were tied together in pairs. The rats were suspended in their cages so that they could not touch any point of support. Just before anesthesia the test samples were administered PO in suspension in gum julep in a volume of 0.5 cc/100g. The animals were left constrained for 24 hours and then killed with ether. The stomachs were removed and cut along the greatest curvature. They were stretched out on cork slabs covered with glazed paper to facilitate examination and photographing. A scale of 0 to 4 was used for the number and dimension of ulcerations (0 for no ulceration, 4 for more than 4 ulcers or a perforation).

[8] = test system: capillary permeability; format: in vivo, rat
Procedure: The capillary permeability was determined by the method of […]., and […]., Arch. Inter. Physiol. […] The products were administered i.p. for capillary permeability, the ED 50 as well as the regression analysis equation expressing the effect on the capillary permeability as a function of the dose expressed in mg/kg.

[9] = test system: capillary resistance; assay: Capillaroprotector effects, capillary resistance; format: in vivo, rat
Procedure: The capillary resistance was determined by a variant of the method of Charlier R., Hosslet A., and Colot M., Arch. Inter. Physiol. Biochem., 71, 1-45 (1963) in Sprague Dowley EOPS rats. The products were administered i.p.

[10] = test system: edema of the rat ear induced by croton oil; assay: Local anti-inflammatory action, edema of the rat ear induced by croton oil (Le Douarec); format: in vivo; settings: topical
Procedure: This was determined by the technique of edema of the rat ear induced by croton oil according to the method of Le Douarec. The irritant mixture was prepared from two solutions: solution A which contained 10 ml of pyridine, 2.5 ml of water and 12.5 ml of ethyl acetate and in which the test sample was dissolved; solution B, which contained 1 ml of croton oil and 24 ml of ethyl acetate. The two solutions A and B were mixed together before use. Edema was induced by swabbing the ear with a cotton wad moistened with the irritant mixture (about 1 ml of mixture per rat).

Compound: β-aescine
MTD (maximum tolerated dose) ([1]; IP): 2.5 mg per kg | MTD (maximum tolerated dose) ([1]; IV): < 1.25 mg per kg | MTD (maximum tolerated dose) [2]: < 6.25 mg per kg | arterial pressure ([3]; 1 mg/kg/min): a slight hypotension was observed at the beginning of the perfusion; the arterial pressure next increased, then abruptly dropped to end rapidly in death | arterial pressure and heart and respiratory rates ([3]; up to 0.1 mg/kg/min): tended to increase | P.B.Q. Test ED 50 ([4]; i.p.): 2.7 (1.7-7.5) mg/kg | Hot Plate Test AD 50 ([5]; i.p.): 4.5 mg/kg | Edema from Carrageenan ED 50 ([6]; 2 hours after carrageenan): 6.5 mg/kg | Edema from Carrageenan ED 50 ([6]; 3 hours after carrageenan): 8.5 mg/kg | Edema from Carrageenan ED 50 ([6]; 6 hours after carrageenan): 7.5 mg/kg | % of Anti-Ulcer Activity [7]: 13%

Capillary permeability regression equation, constant term ([8]; rat, not told): 159 | Capillary permeability regression equation, slope (coefficient of X) ([8]; rat, not told): -6.50
Compound: Sodium escinate
Capillary Permeability ED 50 ([8]; i.p., standard Wistar rat, range in parentheses): 12 (10-15) mg/kg | Capillary Resistance activity ([9]; dose 5 mg/kg i.p.): 26 ± 15 ucmHg/hour | Capillary Resistance, % of animals with activity ≥25 ([9]; dose 5 mg/kg i.p.): 60% | Capillary Resistance activity ([9]; dose 10 mg/kg i.p.): 78 ± 24 ucmHg/hour | Capillary Resistance, % of animals with activity ≥25 ([9]; dose 10 mg/kg i.p.): 100%

Compound: CC(=O)Oc1ccccc1C(=O)O [Aspirin]
% of Activity (inhibition of the edema) ([10]; 25 mg/ml of mixture): 27% | % of Activity (inhibition of the edema) ([10]; 50 mg/ml of mixture): 65%

Compound: CCCCC1C(=O)N(c2ccccc2)N(c2ccccc2)C1=O [Phenylbutazone]
ED50 ([4]; Mus musculus, ip, read-out: P.B.Q. Test ED 50): 14 mg/kg | ED50 ([5]; Mus musculus, ip, read-out: Hot Plate Test AD 50): 125 mg/kg
